Test results published in US20130224151A1, “Use of FAAH Inhibitors for Treating Abdominal, Visceral and Pelvic Pain” (UNITED STATES OF AMERICA, priority 2010, published 2013).
Entries after “also recorded” stand apart in the source; their conditions may differ.

How the values were obtained:
Type in all cases: in vivo, rat
Female Wistar rats [1] = test: Basal sensitivity to colorectal distension model; conditions: 30 mg/kg by oral gavage; CRD measured 2 hrs later; 0-60 mmHg
Female Wistar rats [2] = test: Partial restraint stress-induced hyperalgesia model; conditions: 30 mg/kg orally, 1 hr 15 min into 2 hr PRS; CRD 2 hrs later; 45 and 60 mmHg
Method: Female Wistar rats surgically prepared for electromyography as described in Example 1 were used to evaluate the effects of the FAAH inhibitors (a) compound A or (b) compound B, on colorectal sensitivity and compliance after a 2 hour partial restraint stress session.
Partial restraint stress (PRS), a relatively mild stress, was induced as previously described (Morteau et al. Dig. Dis. Sci. 1994: 39:1239-48; “Guanylate cyclase C-mediated antinociceptive effects of linaclotide in rodent models of visceral pain”, Eutamene H, Bradesi S, Larauche M, Theodorou V, Beaufrand C, Ohning G, Fioramonti J, Cohen M, Bryant A P, Kurtz C, Currie M G, Mayer E A, Bueno L, Neurogastroenterology and motility —2010 Volume: 22 p. 312-322; “Stress-induced changes in intestinal transit in the rat: a model for irritable bowel syndrome”, Williams C L, Villar R G, Peterson J M, Burks T F, Gastroenterology—1988 p. 611-21). Female rats were lightly anesthetized with diethyl ether and their shoulders, upper forelimbs and thoracic trunk were wrapped in a confining harness of paper tape to restrict, but not prevent body movements. Control sham-stress animals were anesthetized but not wrapped. […]
Rats were treated orally with compound A (30 mg/kg in DMSO/cremophor/isotonic saline (1:1:8 v:v:v), n=8), or vehicle only (DMSO/cremophor/isotonic saline (1:1:8 v:v:v), 1 mL, n=9) with or without 2 hour PRS sessions. The number of abdominal contractions was recorded by electromyography per 5-minute period (y axis) for each distension pressure of 0 mmHg, 15 mmHg, 30 mmHg, 45 mmHg and 60 mmHg (x axis); the ? symbols represent the results for the control+vehicle group (n=9); the symbols ? represent the results for the stress+vehicle group (n=9); the symbols ? represent the results for the stress+compound A group (n=8). Data are mean values with SEM.
Rats were treated orally with compound B (30 mg/kg in DMSO/cremophor/isotonic saline (1:1:8 v:v:v), n=9), or vehicle only (DMSO/cremophor/isotonic saline (1:1:8 v:v:v), 1 mL, n=9) with or without 2 hour PRS sessions. The number of abdominal contractions was recorded by electromyography per 5-minute period (y axis) for each distension pressure of 0 mmHg, 15 mmHg, 30 mmHg, 45 mmHg and 60 mmHg (x axis); the symbols ? represent the results for the control+vehicle group (n=9); the symbols ? represent the results for the stress+vehicle group (n=9); and the symbols ? represent the results for the stress+compound B group (n=9). Data are mean values with SEM.
The effect of FAAH inhibitor URB597 was tested at 3 mg/kg and 10 mg/kg in the PRS model of visceral hyperalgesia essentially as described in Examples 1 and 2. URB597 was formulated as a suspension in vehicle [DMSO/cremophor/isotonic saline (1:1:8 v:v:v)]. […]

[3] = tested on: Male Sprague Dawley (SD) rats; test: Cortagine-induced visceral hypersensitivity to colorectal distension; conditions: for antihyperalgesic effects in the cortagine model of visceral pain: summary statement referring to Example 3
Text: Male Sprague Dawley (SD) rats (250-275 g, Harlan Labs, Indianapolis, Ind.) were kept under standard conditions of humidity and temperature and a 12-hour light/dark cycle (lights on 6.00 a.m.). Animals were group housed and had access to food ad libitum. Prior to the start of studies, animals were acclimatized to handling and administration of treatments (oral syringe feeding and subcutaneous injection). At the end of the experiments, animals were sacrificed by CO2 gas inhalation followed by thoracotomy or isoflurane anesthesia followed by decapitation with appropriate approved animal protocols.
On the day of the experiments, rats were injected intraperitoneally (IP) with cortagine (10 μg/kg, 0.8 ml/kg in DMSO/cremophor/isotonic saline (1:1:8 v:v:v). Cortagine, a selective corticotropin releasing factor receptor 1 (CRF1) agonist, prepared as described previously (Rivier et al. J. Med. Chem. 2007: 50:1668-1674), was stored in a powder form at −80° C. and prepared in sterile water (12.5 μg/ml) immediately before use. This dose had previously been established to show a significant increase in defecation, induction of diarrhea and increase in colonic motility, permeability and visceral pain in rats. (Larauche et al. Am. J. Physiol. Gastrointest. Liver Physiol. 2009: 297:G215-G227)
FAAH inhibitor compounds URB597 [3′-(aminocarbonyl)biphenyl-3-yl cyclohexyl carbamate], compound A and compound B were formulated as suspensions in DMSO/cremophor/isotonic saline (1:1:8 v:v:v). The concentration of the respective dosing FAAH inhibitor compound suspensions were 6 mg/ml for 30 mg/kg dose of compound A or compound B; 2 mg/ml for the 10 mg/kg dose of compound B; and 1.5 mg/ml for the 3 mg/kg dose of URB597. Compound A, compound B or vehicle treatment was administered to rats by per os (PO) route at dose-volume of 5 ml/kg. URB597 treatment was administered to rats by subcutaneous (SC) route at dose volume of 2 ml/kg. The vehicle for the PO route was DMSO/cremophor/isotonic saline (1:1:8 v:v:v). Vehicle (PO), URB597 (SC), compound A and compound B (PO) were administered to non-fasted rats, restrained by hand. The regimen of administration of URB597, compound A and compound B involved one delivery (PO or SC) performed 120 min before IP injection of cortagine.
Visceral pain was assessed using a non-invasive pressure transducer system referred to as “sensor balloon” as previously described (Larauche et al. Am. J. Physiol. Gastrointest. Liver Physiol. 2009: 297:G215-G227; Ness et al. Brain Res. 1988: 450:153-169). Briefly, in adult non-fasted SD rats, a 4-5 cm “sensor balloon” lubricated with surgical lubricant (Surgilube, Fougera, Melville) was inserted intra-anally under brief isoflurane anesthesia. The “sensor balloon” was positioned such that its distal end was 1 cm proximal to the anal verge and secured in place by tapping the balloon catheter to the tail. Rats were placed individually in Boolman's cage and allowed to recover from anesthesia and habituation. The colorectal procedure was performed using the Distender Series Ilir dual barostat (G&J Electronics Inc, Toronto, Ontario). The CRD protocol consisted of 2 CRD at 60 mmHg to unfold the balloon followed by 2 sets of CRD at 10, 20, 40 and 60 mmHg, 20 s duration, 4-min inter-stimulus interval. The intra-luminal colonic pressure (ICP) was recorded for 20 s before, during and after termination of CRD. […]

[4] = 30 mg/kg PO 2 h before cortagine
[5] = 30 mg/kg PO 2 h before cortagine 10 μg/kg IP, 40 and 60 mmHg, did not reach statistical significance
[6] = 30 mg/kg PO 2 h before cortagine, n=11
[7] = 10 mg/kg PO 2 h before cortagine, normalized to baseline VMR at 60 mmHg

| SMILES | basal sensitivity to colorectal distension (number of abdominal contractions per 5-minute period) (Female Wistar rats [1]) | abdominal contractions versus stress+vehicle control (Female Wistar rats [2]) | rats with increased VMR between 0 and 50% at 60 mmHg [3, 4] [%] | rats with increased VMR between 51 and 100% at 60 mmHg [3, 4] [%] | rats with increased VMR over 101% at 60 mmHg [3, 4] [%] | effect on cortagine-induced visceral hypersensitivity to CRD [3, 5] | rats presenting an increased VMR over baseline (% hypersensitive rats) at 60 mmHg [3, 6] [%] | antihyperalgesic effects in the cortagine model of visceral pain [3] | % hypersensitive rats at 40 mmHg ([3]; 10 mg/kg PO 2 h before cortagine) [%] | effect on cortagine-induced visceral hypersensitivity to CRD ([3]; 10 mg/kg PO 2 h before cortagine 10 μg/kg IP) | rats presenting a decrease in VMR compared to baseline at 60 mmHg ([3]; 10 mg/kg PO 2 h before cortagine, n=11) [%] | rats presenting an increased VMR over baseline (% hypersensitive rats) at 60 mmHg ([3]; 10 mg/kg PO 2 h before cortagine, n=11, all increases between 0 and 50%) [%] | VMR to CRD at 40 mmHg [3, 7] [%] | VMR to CRD at 60 mmHg [3, 7] [%] |
| --- | --- | --- | --- | --- | --- | --- | --- | --- | --- | --- | --- | --- | --- | --- |
| COc1ccc2c(c1)c(C(=O)C(=O)Nc1cccc(Cl)c1)c(C)n2Cc1ccc(Cl)cc1 [compound A, 2-(1-(4-chlorobenzyl)-5-methoxy-2-methyl-1H-indol-3-yl)-N-(3-chlorophenyl)-2-oxoacetamide] | neither compound A nor compound B alters basal sensitivity | non-significant trend towards attenuation of abdominal contractions; also recorded: exhibit antihyperalgesic effects | 18 | 27 | 9 | trend to decrease the cortagine-induced visceral hypersensitivity; also recorded: trend to reduce cortagine-induced visceral hypersensitivity | 55 | exhibit antihyperalgesic effects | – | – | – | – | – | – |
| COc1cc(NC(=O)C(=O)c2c(C)n(Cc3ccc(Cl)cc3)c3ccc(C)cc23)ccn1 [compound B, 2-(1-(4-chlorobenzyl)-2,5-dimethyl-1H-indol-3-yl)-N-(2-methoxypyridin-4-yl)-2-oxoacetamide] | neither compound A nor compound B alters basal sensitivity | significantly reduced abdominal contractions; also recorded: exhibit antihyperalgesic effects | 45 | – | 9 | trend to dampen the development of the visceral hypersensitivity; also recorded: trend to reduce cortagine-induced visceral hypersensitivity | 55 | exhibit antihyperalgesic effects | 36 | abolished the visceral hypersensitivity; also recorded: prevented the visceral hypersensitivity | 64 | 36 | 84.74±13.54 | 87.75±10.96 |
